Source: patent publication US20090111736A1, “Orally-Absorbed Solid Dose Formulation for Vancomycin” (SRI International, priority 2007, published 2009)
Several values for one entry are separate records, joined by “and”; a condition that tells them apart may be missing. Equal values may be shown once. Where a name gives a salt, the structure may show the parent alone.

Tested on: rat jejunum
Test: In vitro mucosal-to-serosal vancomycin transport, modified Ussing chambers, jejunum
Format: in vitro ADME
Conditions: for Ave. Cumulative Amt VCM Released: jejunum
Excerpt: We investigated regional variation in permeation of vancomycin (VCM) across various segments of rat intestine and colon in vitro by mounting isolated segments of rat intestine and colon between horizontal modified Ussing chambers. The effects of drug concentration and of addition of a p-glycoprotein inhibitor or permeation enhancer(s) as formulation additives on VCM permeation were also studied in vitro using segments of rat jejunum.
Methods: A modified Ussing system (Easy mount Ussing system, Physiological Instruments Inc., CA, Item # EM-CSYS-8) with eight sets of chambers was used for all in vitro studies; each set consisted of two parallel diffusion chambers, a heating block for temperature control, needle valves for gas flow adjustment and gas mixing, and Ag/AgCl voltage and current electrodes for measuring transepithelial voltage and for passing current.
Harvesting of required small intestinal or colon segments of a male rat was performed using experimental procedures described in the literature (Gotoh et al., J Biomol Screen (2005) 10:517-23). The harvested segments of small intestine or colon were mounted on sliders placed between the two horizontal chambers of a modified Ussing system.
VCM was dissolved in HEPES buffer pH 7.4 (Table 1) previously saturated with 100% O2 or HEPES buffer containing additives selected from permeation enhancer(s) and/or an efflux transport inhibitor (Table 2) to obtain predetermined concentrations of drug and additive(s).
Drug transport across epithelial membranes of harvested rat small intestine and colon segments, in mucosal-to-serosal (M-to-S) direction, was studied using modified Ussing Chambers. Aliquots of HEPES buffer (5 ml) were initially added to both the mucosal and serosal chambers and allowed to equilibrate for 20 minutes. The HEPES buffer in the mucosal chamber was replaced by a study sample containing VCM alone or VCM and selected additive(s) in HEPES buffer, e.g., 5 mg/mL of VCM dissolved in HEPES buffer containing 10% w/w Labrasol®. Aliquots of 0.5 mL buffer solutions were removed periodically from serosal chambers, and replaced with equal volumes of fresh warm (37±2° C.) HEPES buffer previously saturated with 100% O2. […]
Changes in transepithelial short-circuit current (in micro-Amps) and membrane resistance (in Ohms) as a function of time were monitored continuously during in vitro studies to serve as indicators of tissue viability and drug permeability, respectively. The buffer samples from the receptor chambers were analyzed for VCM content on a high pressure liquid chromatograph (HPLC; Hewlett Packard Model 1100 series).
The analysis of VCM samples was performed using a reverse phase gradient HPLC method, with a Hypersil BDS C18 column, 5 μm, 150×4.6 mm., mobile phase consisting of 5 mM potassium phosphate monobasic in water (pH 3) as solvent A and acetonitrile as solvent B at a flow rate of 1 ml/min (Farin et al., J Pharm Biomed Anal (1998) 18:367-72). The eluant was monitored by a UV/diode array detector at 280 nm.
To compare data obtained from different in vitro experiments, the apparent permeability coefficients were calculated using the equation: […]
Where dQ/dt is the linear appearance rate of mass in receiver compartment, C0 is the initial solute concentration in donor compartment, and A is the surface area (Luo et al., Drug Metab Dispos (2002) 30:763-70).

Structure (SMILES): CN[C@H](CC(C)C)C(=O)N[C@H]1C(=O)N[C@@H](CC(N)=O)C(=O)N[C@H]2C(=O)N[C@H]3C(=O)N[C@H](C(=O)N[C@H](C(=O)O)c4cc(O)cc(O)c4-c4cc3ccc4O)[C@H](O)c3ccc(c(Cl)c3)Oc3cc2cc(c3O[C@@H]2O[C@H](CO)[C@@H](O)[C@H](O)[C@H]2O[C@H]2C[C@](C)(N)[C@H](O)[C@H](C)O2)Oc2ccc(cc2Cl)[C@H]1O [Vancomycin hydrochloride]
- increase in M-to-S transport of VCM (0.15 mM Quinidine added to the serosal chamber): 3 fold
- effect on M-to-S transport of VCM (0.15 mM Quinidine in mucosal chamber): increased M-to-S transport of VCM, but to a lesser extent
- effect on in vitro permeation of VCM (1.0 mM sodium decanoate in mucosal chamber): much greater effect
- effect on in vitro permeation of VCM (1.0 mM sodium decanoate in serosal chamber): minimal effect
- effect on M-to-S transport of VCM (bile salts at 20% w/w in mucosal chamber): greatly enhanced M-to-S transport
- Ave. Cumulative Amt VCM Released (1.0 mM sodium decanoate in mucosal chamber, 0.5 hr): 2.24 ± 3.17 µg
- Ave. Cumulative Amt VCM Released (1.0 mM sodium decanoate in mucosal chamber, 1.0 hr): 4.52 ± 6.39 µg
- Ave. Cumulative Amt VCM Released (1.0 mM sodium decanoate in mucosal chamber, 1.5 hr): 11.11 ± 10.44 µg
- Ave. Cumulative Amt VCM Released (1.0 mM sodium decanoate in mucosal chamber, 2.0 hr): 19.25 ± 14.42 µg
- Ave. Cumulative Amt VCM Released (1.0 mM sodium decanoate in mucosal chamber, 2.5 hr): 34.10 ± 8.84 µg
- Ave. Cumulative Amt VCM Released (1.0 mM sodium decanoate in serosal chamber, 0.5 hr): 0.00 ± 0.00 µg
- Ave. Cumulative Amt VCM Released (1.0 mM sodium decanoate in serosal chamber, 1.0 hr): 0.91 ± 1.28 µg
- Ave. Cumulative Amt VCM Released (1.0 mM sodium decanoate in serosal chamber, 1.5 hr): 3.91 ± 0.70 µg
- Ave. Cumulative Amt VCM Released (1.0 mM sodium decanoate in serosal chamber, 2.0 hr): 6.91 ± 0.41 µg
- Ave. Cumulative Amt VCM Released (1.0 mM sodium decanoate in serosal chamber, 2.5 hr): 10.60 ± 0.28 µg
- Ave. Cumulative Amt VCM Released (5 mg/ml vancomycin in HEPES buffer without enhancer, 0.5 hr, hydrochloride): 0.00 ± 0.00 µg and 0.00 ± 0.0 µg
- Ave. Cumulative Amt VCM Released (5 mg/ml vancomycin in HEPES buffer without enhancer, 1.0 hr): 1.06 ± 0.95 µg
- Ave. Cumulative Amt VCM Released (5 mg/ml vancomycin in HEPES buffer without enhancer, 1.5 hr): 3.73 ± 0.61 µg
- Ave. Cumulative Amt VCM Released (5 mg/ml vancomycin in HEPES buffer without enhancer, 2.0 hr): 6.94 ± 1.07 µg
- Ave. Cumulative Amt VCM Released (5 mg/ml vancomycin in HEPES buffer without enhancer, 2.5 hr): 11.08 ± 1.08 µg
- Ave. Cumulative Amt VCM Released (5 mg/ml, 0.15 mM Quinidine in mucosal chamber, 0.5 hr): 0.00 ± 0.00 µg
- Ave. Cumulative Amt VCM Released (5 mg/ml, 0.15 mM Quinidine in mucosal chamber, 1.0 hr): 1.72 ± 2.44 µg
- Ave. Cumulative Amt VCM Released (5 mg/ml, 0.15 mM Quinidine in mucosal chamber, 1.5 hr): 4.91 ± 3.98 µg
- Ave. Cumulative Amt VCM Released (5 mg/ml, 0.15 mM Quinidine in mucosal chamber, 2.0 hr): 9.00 ± 5.72 µg
- Ave. Cumulative Amt VCM Released (5 mg/ml, 0.15 mM Quinidine in mucosal chamber, 2.5 hr): 14.14 ± 6.95 µg
- Ave. Cumulative Amt VCM Released (5 mg/ml, 0.15 mM Quinidine in serosal chamber, 0.5 hr): 1.87 ± 0.57 µg
- Ave. Cumulative Amt VCM Released (5 mg/ml, 0.15 mM Quinidine in serosal chamber, 1.0 hr): 8.27 ± 3.06 µg
- Ave. Cumulative Amt VCM Released (5 mg/ml, 0.15 mM Quinidine in serosal chamber, 1.5 hr): 16.77 ± 7.45 µg
- Ave. Cumulative Amt VCM Released (5 mg/ml, 0.15 mM Quinidine in serosal chamber, 2.0 hr): 26.75 ± 11.57 µg
- Ave. Cumulative Amt VCM Released (5 mg/ml, 0.15 mM Quinidine in serosal chamber, 2.5 hr): 38.96 ± 12.27 µg
- Ave. Cumulative Amt VCM Released (5 mg/ml, slider area 0.5 cm^2, 20% w/w bile salt, 0.5 hr): 0.00 ± 0.00 µg
- Ave. Cumulative Amt VCM Released (5 mg/ml, slider area 0.5 cm^2, 20% w/w bile salt, 1.0 hr): 5.40 ± 2.26 µg
- Ave. Cumulative Amt VCM Released (5 mg/ml, slider area 0.5 cm^2, 20% w/w bile salt, 1.5 hr): 18.19 ± 7.43 µg
- Ave. Cumulative Amt VCM Released (5 mg/ml, slider area 0.5 cm^2, 20% w/w bile salt, 2.0 hr): 37.58 ± 9.54 µg
- Ave. Cumulative Amt VCM Released (5 mg/ml, slider area 0.5 cm^2, 20% w/w bile salt, 2.5 hr): 66.39 ± 18.91 µg
- Ave. Cumulative Amt VCM Released (5 mg/ml, slider area 0.5 cm^2, No Q (quinidine study), 0.5 hr): 0.00 ± 0.00 µg
- Ave. Cumulative Amt VCM Released (5 mg/ml, slider area 0.5 cm^2, No Q (quinidine study), 1.0 hr): 1.66 ± 0.43 µg
- Ave. Cumulative Amt VCM Released (5 mg/ml, slider area 0.5 cm^2, No Q (quinidine study), 1.5 hr): 4.34 ± 1.57 µg
- Ave. Cumulative Amt VCM Released (5 mg/ml, slider area 0.5 cm^2, No Q (quinidine study), 2.0 hr): 8.73 ± 2.92 µg
- Ave. Cumulative Amt VCM Released (5 mg/ml, slider area 0.5 cm^2, No Q (quinidine study), 2.5 hr): 14.24 ± 4.56 µg
- Ave. Cumulative Amt VCM Released (10 mg/ml in HEPES buffer without enhancer, 0.5 hr): 0.00 ± 0.0 µg
- Ave. Cumulative Amt VCM Released (10 mg/ml in HEPES buffer without enhancer, 1.0 hr): 2.76 ± 0.69 µg
- Ave. Cumulative Amt VCM Released (10 mg/ml in HEPES buffer without enhancer, 1.5 hr): 6.88 ± 0.98 µg
- Ave. Cumulative Amt VCM Released (10 mg/ml in HEPES buffer without enhancer, 2.0 hr): 12.86 ± 1.23 µg
- Ave. Cumulative Amt VCM Released (10 mg/ml in HEPES buffer without enhancer, 2.5 hr): 20.77 ± 1.90 µg
- Ave. Cumulative Amt VCM Released (25 mg/ml in HEPES buffer without enhancer, 0.5 hr): 0.00 ± 0.0 µg
- Ave. Cumulative Amt VCM Released (25 mg/ml in HEPES buffer without enhancer, 1.0 hr): 2.90 ± 1.82 µg
- Ave. Cumulative Amt VCM Released (25 mg/ml in HEPES buffer without enhancer, 1.5 hr): 7.99 ± 5.71 µg
- Ave. Cumulative Amt VCM Released (25 mg/ml in HEPES buffer without enhancer, 2.0 hr): 21.56 ± 3.84 µg
- Ave. Cumulative Amt VCM Released (25 mg/ml in HEPES buffer without enhancer, 2.5 hr): 50.91 ± 6.58 µg
